In the supplement of paper PMC10307832:

Tests used:
Experiment in all cases: relative viability (nuclei count vs DMSO), 5 days (fraction); higher = more cells survive
RO-3306 + Vorinostat = compound: C1=CC2=C(C=CC(=C2)C=C3C(=O)NC(=NCC4=CC=CS4)S3)N=C1 [RO-3306] + O=C(CCCCCCC(=O)Nc1ccccc1)NO [Vorinostat] (partner 1 µM)
In short: (§1)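 The day after seeding in 1536-well plates, lung cancer cell lines were treated by pin tool with a single drug, or with a fixed anchor-drug dose together with five library-drug doses (not always all listed) in √10 steps. After 5 days, a combined fix-and-stain solution (final 0.05% Triton X-100, 1% formaldehyde, 1 ug/ml Hoechst) was added. Nuclei counted on 4× images gave relative viability as treated counts over vehicle counts, reported as the median of duplicate plates.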

RO-3306 + OSI-027 = compound: C1=CC2=C(C=CC(=C2)C=C3C(=O)NC(=NCC4=CC=CS4)S3)N=C1 [RO-3306] + COc1cccc2cc(-c3nc([C@H]4CC[C@H](C(=O)O)CC4)n4ncnc(N)c34)[nH]c12 [OSI-027] (partner 0.5 µM)
In short: as §1

[1] = compound: O=S(=O)(c1ccccc1)N(CC(F)(F)F)c1ccc(C(O)(C(F)(F)F)C(F)(F)F)cc1 + CS(=O)(=O)N1CCN(Cc2cc3nc(-c4cccc5[nH]ncc45)nc(N4CCOCC4)c3s2)CC1 [Pictilisib] (partner 1 µM)
In short: as §1

[2] = compound: O=S(=O)(c1ccccc1)N(CC(F)(F)F)c1ccc(C(O)(C(F)(F)F)C(F)(F)F)cc1 + O=C(c1cc(Cc2n[nH]c(=O)c3ccccc23)ccc1F)N1CCN(C(=O)C2CC2)CC1 [Olaparib] (partner 8 µM)
In short: as §1

[3] = compound: O=S(=O)(c1ccccc1)N(CC(F)(F)F)c1ccc(C(O)(C(F)(F)F)C(F)(F)F)cc1 + COc1cc2c(Oc3ccc(NC(=O)C4(C(=O)Nc5ccc(F)cc5)CC4)cc3F)ccnc2cc1OCCCN1CCOCC1 [Foretinib] (partner 0.25 µM)
In short: as §1

Cell Line	relative viability (RO-3306 + Vorinostat; first compound 0.01 µM)	relative viability (RO-3306 + Vorinostat; first compound 0.03162 µM)	relative viability (RO-3306 + Vorinostat; first compound 0.1 µM)	relative viability (RO-3306 + Vorinostat; first compound 0.3162 µM)	relative viability (RO-3306 + Vorinostat; first compound 1 µM)	relative viability (RO-3306 + OSI-027; first compound 0.01 µM)	relative viability (RO-3306 + OSI-027; first compound 0.03162 µM)	relative viability (RO-3306 + OSI-027; first compound 0.1 µM)	relative viability (RO-3306 + OSI-027; first compound 0.3162 µM)	relative viability (RO-3306 + OSI-027; first compound 1 µM)	relative viability ([1]; first compound 0.8 µM)	relative viability ([1]; first compound 2.53 µM)	relative viability ([1]; first compound 8 µM)	relative viability ([2]; first compound 0.8 µM)	relative viability ([2]; first compound 2.53 µM)	relative viability ([2]; first compound 8 µM)	relative viability ([3]; first compound 0.8 µM)	relative viability ([3]; first compound 2.53 µM)	relative viability ([3]; first compound 8 µM)
NCI-H650	0.406	0.376	0.41	0.428	0.415	0.473	0.471	0.492	0.483	0.501	0.913	0.842	0.885	0.405	0.387	0.359	1.18	1.05	1.07
NCI-H661	0.875	0.727	0.801	0.773	0.807	0.853	0.597	0.695	0.72	0.701	0.389	0.398	0.427	0.774	0.779	0.768	1.03	0.961	0.844
NCI-H727	1.08	1.25	1.02	1.3	1.06	0.567	0.548	0.557	0.608	0.674	0.758	0.261	0.353	0.657	0.706	0.704	0.83	0.846	0.867
NCI-H838	0.726	0.694	0.722	0.738	0.674	0.334	0.394	0.35	0.412	0.373	0.46	0.403	0.642	0.937	0.736	0.86	1.15	1.05	1.02
